According to patent US9493775B2, “Inhibition of the glycine cleavage system for treatment of cancer” (Whitehead Institute for Biomedical Research, priority 2012, dated 2016):

Assays:
[1] = system: GLDC-knockdown-sensitive cells; assay: Cysteamine treatment, cell viability by ATP assay; type: cell-based; details: 1 mM, 4 days
Experimental: FIGS. 3A-3C. GLDC shRNA sensitive lines, but not insensitive lines, are also sensitive to pharmacological inhibition of the GCS, and to shRNA knockdown of another GCS component (GCSH). (A) Various cell lines were treated with 1 mM cysteamine for 4 days. […] (C) Various cells lines were infected with GS1, GS2, GS3, or GS4 shRNAs for 6 days. Cell viability was measured and data from multiple experiments is shown ±S.D. The blue line indicates cell viability for each cell line when infected with control (GFP) shRNA, which was set as 100%. Thus, data for each cell line is shown as a % relative to viability when infected with shGFP. For (A) and (C), asterisk indicates a statistically significant decrease in cell viability following cysteamine treatment relative to untreated (p<0.05). Red font indicates GLDC shRNA-sensitive lines, and blue font indicates insensitive lines.
We assessed the effect of treatment with cysteamine, an inhibitor of the GCS (9) on a number of the tumor cell lines that had been examined in the experiments described in Example 3. Cells were treated with cysteamine (1 mM) for 4 days, and cell viability was then assessed using an ATP assay.

[2] = target: T1, glycine cleavage system (GCS) (Homo sapiens, UniProt P23378); details: cited from earlier work
T1 sequence (P23378 36-1020): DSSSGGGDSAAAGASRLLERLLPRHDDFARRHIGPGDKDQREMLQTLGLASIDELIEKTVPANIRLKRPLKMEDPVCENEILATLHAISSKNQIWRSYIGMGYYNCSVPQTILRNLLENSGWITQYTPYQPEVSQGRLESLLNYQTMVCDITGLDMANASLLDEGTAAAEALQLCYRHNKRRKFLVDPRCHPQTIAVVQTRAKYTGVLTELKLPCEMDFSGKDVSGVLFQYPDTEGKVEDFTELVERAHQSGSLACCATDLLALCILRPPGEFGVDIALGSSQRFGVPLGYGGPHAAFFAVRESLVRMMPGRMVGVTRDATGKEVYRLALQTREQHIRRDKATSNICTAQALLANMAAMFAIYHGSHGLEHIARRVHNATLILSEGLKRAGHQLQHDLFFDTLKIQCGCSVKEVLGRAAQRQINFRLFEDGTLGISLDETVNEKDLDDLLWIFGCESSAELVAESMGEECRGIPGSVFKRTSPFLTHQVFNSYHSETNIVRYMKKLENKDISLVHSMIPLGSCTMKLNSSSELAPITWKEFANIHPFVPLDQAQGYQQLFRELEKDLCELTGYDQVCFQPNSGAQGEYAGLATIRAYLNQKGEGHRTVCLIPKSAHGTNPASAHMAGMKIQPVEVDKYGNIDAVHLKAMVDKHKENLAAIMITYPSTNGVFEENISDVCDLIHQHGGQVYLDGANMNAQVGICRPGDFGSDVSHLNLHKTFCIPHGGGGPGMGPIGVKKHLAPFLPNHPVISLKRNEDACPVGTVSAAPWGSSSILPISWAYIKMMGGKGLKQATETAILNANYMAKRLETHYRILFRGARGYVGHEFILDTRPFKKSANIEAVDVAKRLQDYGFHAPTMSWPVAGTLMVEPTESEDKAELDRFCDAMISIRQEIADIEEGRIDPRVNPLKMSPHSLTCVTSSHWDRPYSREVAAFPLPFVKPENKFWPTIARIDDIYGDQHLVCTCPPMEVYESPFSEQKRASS

T protein = T protein (Homo sapiens, UniProt P48728); details: cited from earlier work
P protein = details: cited from earlier work
[3] = system: glycine cleavage activity in the liver; details: administration to rats; cited from earlier work
[4] = patients with NKH; cited from earlier work

T protein, sequence (P48728 29-403): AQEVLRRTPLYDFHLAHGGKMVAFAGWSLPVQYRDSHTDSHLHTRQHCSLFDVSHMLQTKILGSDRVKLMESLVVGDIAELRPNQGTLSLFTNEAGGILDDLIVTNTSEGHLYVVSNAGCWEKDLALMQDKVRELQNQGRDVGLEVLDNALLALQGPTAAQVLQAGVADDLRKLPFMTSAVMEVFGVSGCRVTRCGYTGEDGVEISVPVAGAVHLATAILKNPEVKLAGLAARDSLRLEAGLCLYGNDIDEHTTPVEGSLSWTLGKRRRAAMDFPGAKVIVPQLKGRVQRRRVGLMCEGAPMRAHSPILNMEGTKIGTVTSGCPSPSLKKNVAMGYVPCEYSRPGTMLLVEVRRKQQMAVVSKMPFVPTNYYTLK

## NCCS [cysteamine, 2-aminoethanethiol]
[1]
  cell viability (ATP assay): impaired viability
[2]
  inhibition of the GCS: known inhibitor of the GCS

## CN1c2c(nc(N)[nH]c2=O)NCC1CNc1ccc(C(=O)N[C@@H](CCC(=O)O)C(=O)O)cc1 (stereo partly drawn) [5-methyltetrahydrofolate]
T protein
  inhibition of T protein: inhibits T protein

## C#CCN [propargylamine, 3-Amino-1-propyne]
[2]
  inhibition of the GCS: reported to inhibit the GCS

## NOCC(=O)O [carboxymethoxylamine]
P protein
  inhibition of P protein: reported to inhibit P protein

## N#CCN [aminoacetonitrile]
[2]
  inhibition of the GCS: reported to inhibit the GCS

## CCCC(CCC)C(=O)O [valproic acid, 2-propylpentanoic acid]
P protein; in vitro
  P protein activity in vitro: reduced
[3]
  glycine cleavage activity in the liver: inhibit glycine cleavage activity in the liver
[4]
  seizure frequency: increase in seizure frequency
